In US9145424B2, “Treatment of amyotrophic lateral sclerosis” (Northwestern University, priority 2008, dated 2015):
Like-named read-outs stand apart in the source and are kept apart here.

Experiments:
[1] = In vitro microsomal stability, human; assay type: in vitro ADME; conditions: Human
Description: (§1) Metabolism (microsome, S9 fraction, CYP450): Liver Cytochrome P450 (CYP450) enzymes are the major route for xenobiotic metabolism and microsomal and hepatocyte stability is the best predictor of pharmacokinetic half-life. Cross-species comparisons of metabolism in liver microsomes can predict potential issues with liver toxicity in humans. Selected active compounds are tested in liver microsomes from efficacy species (mouse), toxicity species (rat, dog, monkey), and humans for metabolic stability.
(§2) CMB-087229 was sent for an evaluation of its in vitro ADME properties.
(§3) Two possible amines, secondary and tertiary AAP analogues, were initially screened in the protection assay (FIG. 30) and for in vitro microsomal stability (Table 1) and Caco-2 permeability (Table 2). […] The solubilities of 2 and 3 were good in aqueous media (≧150 μM), and no precipitation occurred at the highest concentration. The in vitro plasma half-life for both compounds was >60 min.

[2] = In vitro microsomal stability, mouse; assay type: in vitro ADME; conditions: Mouse; for microsomal CLint: mouse, liver microsomes, read-out: CLint (microsomal intrinsic clearance)
Description: as §1, §2, §3

[3] = In vitro plasma stability; assay type: in vitro ADME
Description: Plasma stability: Plasma stability of active compounds is assessed in efficacy species (mouse), toxicity species (rat, dog, monkey), and human cells.

Caco-2 = experiment: In vitro Caco-2 permeability; assay type: in vitro ADME
Description: General Permeability: High membrane permeability is required for effective GI absorption and optimal bioavailability. Passive permeability is typically assessed in the PAMPA artificial membrane assay (Kansy et al., J. Med. Chem. 2002, 45(8), 1712-1722). Cell-based permeability determinations using the Caco-2 cell assay are more resource intensive but more predictive of active transport or efflux in vivo (Artursson et al., Adv. Drug. Deliv. Rev. 2001, 46(1-3), 27-43). Caco-2 assays are performed as needed during SAR development.

Aqueous solubility = assay type: physicochemical; conditions: no precipitation at the highest concentration
Description: Solubility: Because compounds are stored in DMSO, it is necessary to determine aqueous solubility of initial hit compounds and their analogs. High solubility in aqueous solution is necessary for high GI absorption, bioavailability, and for chemical formulation. Compounds should be soluble in aqueous solution at >10 μg/ml. Solubility of >50 μg/ml is preferred.

[4] = tested on: PC12 cells that express mutant G93A SOD1; experiment: Mutant SOD1-induced cytotoxicity protection assay; conditions: for Corresponding % viability: rat, 48 h
Description: This idea was tested by examining the sensitivity of PC12 cells to SOD1 aggregates in the presence and absence of proteasome inhibitor MG132. PC12 cells expressing no SOD1, wild type SOD1, G85R SOD1 or G93A SOD1 were grown with or without MG132 (FIG. 1).
PC12 cells expressing G93A SOD1 were treated with 100 nM MG132 with or without co-treatment with geldanamycin or radicicol.

cortical neurons = experiment: Cortical neuron assay; assay type: cell-based
Description: Selected compounds were tested with cortical neurons—a useful preliminary step prior to the expensive and time-consuming ALS mouse model studies. Although long linker compound 24 and cyclic linker compound 27 are active in the PC12 assay, they are not active with cortical neurons. Compound 3 gave better results than the ether counterpart (1), recovering 100% neuronal activity at 10 μM concentration.

[5] = tested on: PC12 cells expressing G93A SOD1; experiment: Sensitivity of PC12 cells to proteasome inhibitor, calcein-AM viability; assay type: cell-based; conditions: compared with MG132
Description: FIGS. 1A-C. […] Cell survival was determined using the viability stain calcein-AM.

[6] = assay type: in vitro ADME; conditions: male, Sprague Dawley, rat, pH 7.4
[7] = tested on: proteasome activity (Ubi-YFP degradation); experiment: Proteasome activity assay (Ubi-YFP in HeLa cells); assay type: cell-based; conditions: 25 μM compound, 1 μM MG132
Description: FIG. 7. Arylsulfanyl pyrazolones prevent MG132-induced accumulation of Ubi-YFP. HeLa cells were co-transfected with Ubi-YFP and CMV-CFP plasmids, treated with 1 μM MG132 and 25 μM arylsulfanyl pyrazolones and Ubi-YFP fluorescence intensity normalized to CFP.
Since the CMB-003299 cytotoxicity of SOD1 protein aggregates may involve inhibition of proteasome activity, compounds that stimulate proteasome activity could reverse or prevent mutant SOD1-induced cytotoxicity. Thus, active compounds were tested for the ability to stimulate proteasome activity using a cell line expressing ubiquitin-conjugated YFP [Ubi-YFP 74]. In these cells, increased proteasome activity causes increased degradation of Ubi-YFP and decreased YFP fluorescence. Conversely, compounds that inhibit proteasome activity increase accumulation of Ubi-YFP and enhanced YFP fluorescence. As expected, MG132 augments YFP fluorescence intensity ˜3-fold compared to untreated controls (FIG. 7). […] Protein aggregates are present in the absence of MG132 and aggregation is suppressed following treatment with a provided compound.
HeLa cells (20,000/chamber) were plated on 8 chambered Tissue-tek coverglass pretreated with 1 mg/ml poly-D-lysine and allowed to adhere for 18 h at 37° C./5% CO2. Cells were transfected with 0.2 μg each CMV-CFP and Ubi-YFP plasmids using Lipofectamine 2000 according to manufacturer's instructions. Cells were allowed to express CFP and Ubi-YFP for 18 h followed by a 6 h incubation with test compounds (25 μM). MG132 (1 μM) was added for a final 18 h incubation and Ubi-YFP degradation assessed by fluorescence microscopy. Fluorescence intensity of CFP and YFP was calculated on a cell-by-cell basis from captured images using AxioVision software (Zeiss). YFP fluorescence was normalized to CFP fluorescence.

[8] = Rattus norvegicus, PC-12, read-out: Best EC50, PC12 G93A SOD1 cells, MG132, calcein-AM viability
[9] = Rattus norvegicus, PC-12, read-out: EC50 after Normalization, normalised with the corresponding 3299 EC50

## O=c1cc(CNc2cc(Cl)cc(Cl)c2)[nH][nH]1 [Compound 2, 5-((3,5-Dichlorophenylamino)methyl)-1H-pyrazol-3(2H)-one, reference compound]
[1]; NADPH-absent
  T1/2: >180 min
[1]; NADPH-dependent
  T1/2: 95 min
[1]; liver microsomes, NADPH-dependent, read-out: CLint (microsomal intrinsic clearance)
  microsomal CLint: 24 µL/min/mg
[2]; NADPH-absent
  T1/2: 100 min
  microsomal CLint: 23 µL/min/mg
[2]; NADPH-dependent
  T1/2: 30 min
  microsomal CLint: 78 µL/min/mg
[3]
  in vitro plasma half-life: > 60 min
Caco-2
  Efflux ratio (B→A)/(A→B): 47.1
  Papp (A→B): 0.6 10^−6 cm/s
  Papp (B→A): 28.1 10^−6 cm/s
Aqueous solubility
  solubility in aqueous media: ≥ 150 µM

## CN(CCCc1cc(=O)[nH][nH]1)c1cc(Cl)cc(Cl)c1 [Compound 24, 5-(3-((3,5-Dichlorophenyl)(methyl)amino)propyl)-1H-pyrazol-3(2H)-one]
[4]
  activity in the cytotoxicity protection assay, in words: active
Cortical neurons
  activity with cortical neurons, in words: not active

## CC(C)C[C@H](NC(=O)[C@H](Cc1ccccc1)NC(=O)c1cnccn1)B(O)O [bortezomib]
[5]
  sensitivity to proteasome inhibition, in words: Qualitatively similar results

## CC(=O)CC(c1ccccc1)c1c(O)c2ccccc2oc1=O (stereo not shown) [War, warfarin, reference compound]
[6]; 0 min, 15 μM
  % Mean ± S.E.: 100 ± 7.75%
[6]; 60 min, 15 μM
  % Mean ± S.E.: 96.1 ± 7.66%

## Cc1cc(SCc2cc(=O)[nH][nH]2)c(C)cc1Cl [CMB-003299]
[7]
  effect on MG132-induced Ubi-YFP fluorescence: strongly inhibit
[4]; [8]
  EC50: 0.4 µM

## O=c1cc(CS(=O)(=O)c2ccc(Cl)cc2)[nH][nH]1 [TC-II-70]
[6]; 0 min, 15 μM
  % Mean ± S.E.: 100 ± 12.6%
  RR Mean (Response Ratio): 0.237
[6]; 20 min, 15 μM
  % Mean ± S.E.: 109 ± 13.3%
  RR Mean (Response Ratio): 0.261
[6]; 40 min, 15 μM
  % Mean ± S.E.: 84.8 ± 21.8%
  RR Mean (Response Ratio): 0.201

## Cc1cc(-c2ccccc2)nnc1NCCN1CCOCC1 [Mina, Minaprine, reference compound]
[6]; 0 min, 5 μM
  % Mean ± S.E.: 100 ± 11.5%
  RR Mean (Response Ratio): 0.711
[6]; 0 min, 15 μM
  % Mean ± S.E.: 100 ± 7.11%
  RR Mean (Response Ratio): 22.88
[6]; 20 min, 15 μM
  % Mean ± S.E.: 59.2 ± 14.9%
  RR Mean (Response Ratio): 13.54
[6]; 40 min, 5 μM
  % Mean ± S.E.: 45.2 ± 8.1^ %
  RR Mean (Response Ratio): 0.321

## CN(Cc1cc(=O)[nH][nH]1)c1cc(Cl)cc(Cl)c1 [Compound 3, 5-(((3,5-Dichlorophenyl)(methyl)amino)methyl)-1H-pyrazol-3(2H)-one]
[1]; NADPH-absent
  T1/2: >180 min
[1]; NADPH-dependent
  T1/2: >180 min
[2]; NADPH-absent
  T1/2: >180 min
[2]; NADPH-dependent
  T1/2: 25 min
  microsomal CLint: 93 µL/min/mg
[3]
  in vitro plasma half-life: > 60 min
Caco-2
  Efflux ratio (B→A)/(A→B): 3.5
  Papp (A→B): 2.2 10^−6 cm/s
  Papp (B→A): 7.6 10^−6 cm/s
Aqueous solubility
  solubility in aqueous media: ≥ 150 µM
Cortical neurons; 10 μM
  neuronal activity recovered: 100%

## O=c1[nH][nH]c2c1CN(c1cc(Cl)cc(Cl)c1)CC2 [Compound 27, 5-(3,5-Dichlorophenyl)-4,5,6,7-tetrahydro-1H-pyrazolo[4,3-c]pyridin-3(2H)-one]
[4]
  activity in the cytotoxicity protection assay, in words: active
Cortical neurons
  activity with cortical neurons, in words: not active

## O=c1cc(CSc2ccc(-c3ccccc3)cc2)[nH][nH]1 [CMB-086883-1]
[4]; [8]
  EC50: 9.44 µM
[4]; [9]
  EC50: 4.06 µM
[4]
  Corresponding % viability: 115%

## O=c1cc(CS(=O)(=O)c2cc(Cl)cc(Cl)c2)[nH][nH]1 [CMB-087235-2]
[4]
  Corresponding % viability: 132%
[4]; read-out: Best EC50, PC12 G93A SOD1 cells, MG132, calcein-AM viability
  EC50: 0.67 µM
[4]; read-out: EC50 after Normalization, normalised with the corresponding 3299 EC50
  EC50: 1.41 µM

## O=c1cc(CS(=O)(=O)c2ccc(Cl)cc2)[nH][nH]1 [CMB-086475-1]
[4]; [8]
  EC50: 6.92 µM
[4]; [9]
  EC50: 4.7 µM
[4]
  Corresponding % viability: 110%
